Where “and” joins values, the source holds several entries; their conditions need not be identical. Equal values may be shown once. Entries after “also recorded” stand apart in the source; their conditions may differ. Where a name gives a salt, the structure may show the parent alone. Each block holds one compound with its values, some of them ahead of it.
Legend:
rat paw = assay: Post-ischemic reperfusion paw swelling (Example 22); type: in vivo, Sprague Dawley male rats; conditions: study C, 0.2 mg/kg i.p.
Excerpt: This important disease model is used to evaluate aspects of tissue injury that occur in heart attack, or myocardial infarction, and stroke. Under these conditions, a significant period of injury can occur after blood flow has been restored, during the period of reperfusion.
To produce ischemia, blood flow to the left hind foot was largely interrupted by application of a tourniquet made up of two size 18 rubber bands wound eight times around the leg just behind the heel. […] Both application and removal of tourniquet were carried out under ether anesthesia. Injury was equated with organ swelling, which was assayed by measurement of the dorsoventral foot diameter with a Schnelltaster caliper, just before application of the tourniquet and at various times following tourniquet removal, during the reperfusion period.
Rats employed were Sprague Dawley males, weighing 240-280 grams. Drug comparisons were made here employing measurements 30 minutes into the reperfusion period. The widely studied drug allopurinol, a xanthine oxidase inhibitor and a free radical scavenging agent, used in the treatment of gout, and widely used to suppress experimental post-ischemic reperfusion injury was used as an experimental treatment standard. In studies below, allopurinol and all new drugs were given intraperitoneally 45-60 minutes prior to application of the tourniquet. Data are reported as the mean swelling (Mn)±standard error (SE). […] Group n is 5 or 6.
In another study, drug comparisons were made at various times after the reperfusion period. In this study, control and drug treatment groups were as above.

neutrophils = assay: Microscopic examination of neutrophils for cytotoxicity (Example 24); type: cell-based, mouse
peritoneal neutrophils = assay: In vitro neutrophil chemotaxis toward zymosan-activated rat serum (Example 24); type: cell-based, mouse; conditions: for IC50 / inhibition at 1 µg/mL / inhibition at 10 µg/mL / inhibition at 0.1 µg/mL: Mus musculus, Neutrophil; for IC50: 6 h, 20 percent zymosan-activated rat serum, six hours, 37° C., read-out: ID50 (molar concentration that inhibited chemotaxis by 50 percent); for inhibition at 1 µg/mL / inhibition at 10 µg/mL / inhibition at 0.1 µg/mL: read-out: Percent Inhibition of chemotaxis; for inhibition at 10 µg/mL: dose 10.0 μg/ml; for inhibition at 0.1 µg/mL: dose 0.1 μg/ml
Procedure: In vitro neutrophil chemotaxis studies were carried out by standard methods, as follows:
Mice were injected with complete Freund's adjuvant (CFA) and peritoneal cells, principally neutrophjls (>90 percent), were reproved from the mice 24 hours thereafter. Blind-well chemotactic chambers (Nucleopore Corp., Pleasanton, Calif.) were utilized.
Medium (RPMI 1640 plus 10 percent fetal calf serum) or medium plus 20 percent zymosan-activated rat serum (ZAS) was added to the lower compartment of each chamber. A nucleopore filter (8 μm pore size) was placed between compartments and 1×10^5 peritoneal neutrophils (above) suspended in medium were placed in the upper compartment. Chambers were incubated for six hours, after which time the filters were removed and stained with Giemsa stain. The number of cells on the lower surface of the filter was counted under a microscope. Treatment groups were assayed in duplicate.
The studies were carried out more specifically as follows:
Zymosan (Sigma Chemical Co., St. Louis, Mo.) was mixed with rat serum for one hour at 37° C. at 1 milligram (mg)/ml. The resulting chemoattractant composition was filtered, aliquotted and stored frozen at -70° C. prior to use.
The above chemoattractant composition was used as a 20 percent v/v solution in medium.
The chemotaxis chambers were arranged as follows:
The chambers were incubated at 37° C. for six hours, after which the chambers were dismantled, and the filters removed and treated as follows:
a) The filters were immersed in Giemsa stain diluted 1:50 for 30-45 minutes.
b) The stained filters were rinsed gently in distilled water for 3-5 minutes.
c) The stained, rinsed filters were air dried without blotting.
Several compounds described herein and control compounds ("drug", above) were examined at various concentrations, in duplicate. The molar concentration of a drug that inhibited the observed chemotaxis by 50 percent, defined as the ID50 value, was determined as shown below.

foot pad = assay: Inflammation provoked by carrageenan injection (Example 25); type: in vivo, mice; conditions: subcutaneous; ibuprofen 50 mg/kg, Compound III 30 mg/kg; not significant
[1] = Solubility / dissolution in acid, water and 20 percent methanol; type: physicochemical; conditions: pH 1.2; Compound III:Al 2.5 mg/ml
focal submucosal lesions [2] = assay: Ethanol-induced gastric focal lesions (Example 33); type: in vivo, rat
Procedure: At three hours after ethanol administration, this drug continued to suppress ethanol-induced focal lesions (-57 percent).
A suspension of 25 mg/kg sucralfate+25 mg/kg Compound III:Al in combination was given as a pretreatment administration to another group in the same study. The combination produced an unanticipated augmentation of therapeutic effect against ethanol-induced focal submucosal lesions (-90 percent) at three hours post-ethanol administration. The same interactive phenomenon was also observed when Compound III was used, rather than Compound III:Al.

focal submucosal lesions [3] = assay: Ethanol-induced gastric focal lesions (Example 33); type: in vivo, rat; conditions: one hour post-ethanol, 50 mg/kg
gastric mucosal ulcers = assay: Healing of established gastric ulcers induced by acetic acid (Example 34); type: in vivo, rat
Excerpt: To evaluate drug effects on peptic ulcer healing, gastric mucosal ulcers were produced in rats, after a two day fast, by a modification of the method of Konturek et al., Am. J. Med., Vol. 86, 6A, 32 (1989). Briefly, to produce a mucosal ulcer, Konturek et al. applied 100 percent acetic acid for twenty seconds to the stomach serosa through a small cylindrical mold, 4.2 mm in diameter. The aim here was to make ulceration more severe than was achieved by the Konturek group so that spontaneous healing would not be as pronounced as they found in the controls, over an experimental period of seven days.
All drugs studied were suspended in 0.25 percent (by weight) aqueous methylcellulose solution as the vehicle or diluent, which also served as the placebo given to the controls. Treatments were given once daily by oral gavage, in one milliliter of vehicle. The treatment groups were: Control; Sucralfate at 200 mg/kg; and Compound III:Al at 200 mg/kg.
At the end of the treatment period, stomachs were removed, ulcer diameters were measured, and determination was made of the presence or absence of perforation.
A second study was carried out in which ulcer evolution was permitted to take place over five additional days, in the absence and presence of treatment with Sucralfate.
A third study was begun one day following the start of study 2, in which ulcer evolution was allowed to take place over five additional days, in the absence and presence of treatment with Compound III:Al.
In another study, after ulcer induction as above, a different dosage protocol was employed at 24 hours to evaluate the interaction of Compound III and orally administered sucralfate on ulcer healing. […] Here, daily drug doses of the following were used: (a) sucralfate at 200 mg/kg, alone and (b) in combination with 80 mg/kg Compound III given by mouth at -45 minutes, and, in a third group, (c) in combination with 10 mg/kg Compound III given IV also at -45 minutes. In this interaction study, drug treatment was continued for three and not five days, as was the case for the above studies, followed by passage of two additional non-treatment days before sacrifice of animals for evaluation of stomach ulcer area and perforation.
Data from all ulcer-healing studies employing a drug dosage of 200 mg/kg and the same ulcerogenesis protocol were pooled as to the frequency of gastric perforation observed on day five, not shown separately, with the day six perforation data shown above.

[4] = Dissolution and buffering of suspensions, HCl titration (Example 16)
Excerpt: Note that the term "apparent pK" in this context is meant to encompass the maximization of buffering that come both from solid-state dissolution and its titration as solute.

[5] = test system: inflammation in experimental allergic encephalomyelitis; conditions: Willenborg et al. (1989); cited from earlier work
[6] = three hours post-ethanol, 50 mg/kg, combination 25 + 25 mg/kg

Procedure for mouse blood coagulation: To assess the effect on coagulation, if any, of a compound of the invention, a comparative evaluation was made using mouse blood.
One ml of freshly drawn mouse blood was added to each tube, and the tube contents were mixed. The clotting time was then noted for each tube, and the results are as shown below:

- IC50 (peritoneal neutrophils): 1000 nM
Compound: CC1(C)O[C@H]2O[C@H]([C@H](O)COP(=O)(O)O)[C@H](OP(=O)(O)O)[C@H]2O1 [Compound VI, 1,2-O-(2-Propylidene)-3,6-di-O-phospho-α-D-glucofuranose, tetrapotassium salt]
- Post-ischemic reperfusion 30 minute paw swelling, Mn ± SE (rat paw; control 18.4 ± 0.54, P < 0.02): 9.1 ± 0.27 0.1 mm
- Swelling change as a result of treatment (rat paw; 30 minutes): -50%
- expressions of cytotoxicity in neutrophils by microscopic examination (neutrophils): diffuse toxic granularity in the cells
- inhibition at 1 µg/mL (peritoneal neutrophils; dose 1.0 μg/ml): 44%
- inhibition at 10 µg/mL (peritoneal neutrophils): 85%
- Percent Inhibition of chemotaxis (peritoneal neutrophils; dose 1.0 μg/ml): 47.0%

- IC50 (peritoneal neutrophils): > 50000 nM
Compound: CC(C)Cc1ccc(C(C)C(=O)O)cc1 (stereo not drawn) [Ibuprofen, reference compound]
- inhibition at 0.1 µg/mL (peritoneal neutrophils): 17.5%
- inhibition at 1 µg/mL (peritoneal neutrophils; dose 1.0 μg/ml): 9.3%
- inhibition at 10 µg/mL (peritoneal neutrophils): 35.5%
- reduction in swelling (foot pad): 24%

- dissolution of suspension in acid [1]: still not all dissolved
- HCl needed to lower pH of suspension to below pH 2.00 ([4]; 50 mg in 20 ml distilled water, initial pH 4.44 (aluminum trihydroxide), 4.91 (sucralfate), 4.23 (Compound III:Al), water alone 0.30): 1.2 meq
- Relative Buffering Power between pH 4.5 and 2.0 ([4]; sucralfate = 1): 11
Compound: Aluminum Complex of 1,2-O-(1-Isopropylidene)-3,5,6-Tri-O-Sulfo-D-Glucofuranose [Compound III:Al]
- effect on ethanol-produced gastric pathology, in words (focal submucosal lesions [2]; pretreatment 50 mg/kg one hour before ethanol): inhibited all focal lesions provoked by ethanol after one hour without suppressing large-vessel vasodilation
- change in focal lesions versus control (focal submucosal lesions [2]; [6]): -57%
- change in focal lesions versus control, study employing Compound III (focal submucosal lesions [2]; [6]): -33%
- Focal Lesions per Stomach, study employing Compound III (focal submucosal lesions [2]; three hours post-ethanol, 50 mg/kg, combination 25 + 25 mg/kg, control 2.25 ± 0.98): 1.50 + 0.76 per Stomach
- Focal Lesions per Stomach (focal submucosal lesions [2]; three hours post-ethanol, 50 mg/kg, combination 25 + 25 mg/kg, n = 17, control 4.94 ± 1.41): 2.12 ± 0.87 per Stomach
- change in focal lesions versus control (focal submucosal lesions [3]): -100%
- Focal Lesions per Stomach (focal submucosal lesions [3]; n = 6, control 4.17 ± 1.58, p<0.05): 0.00 per Stomach
- DRUG EFFECT on mean ulcer score (gastric mucosal ulcers; Day 6, 200 mg/kg oral): -80%
- Established ulcer score, individual animal (area in cm^2, + 2.0 for perforation) (gastric mucosal ulcers; Day 6, 200 mg/kg oral once daily, * = perforation, 200 mg/kg): 1.2 and 5.75 and 0.72 and 0.8 and 0.5 and 0.3 and 0.56 and 1.4 and 0.90 and 1.44
- MEAN SCORE, established ulcers (gastric mucosal ulcers; Day 6, 200 mg/kg oral, controls 3.03 ± 0.73 (sucralfate study, not significant), 4.12 ± 0.67 (Compound III:Al study, P < 0.001)): 0.82 ± 0.13
- DRUG EFFECT on mean ulcer area (gastric mucosal ulcers; day six, 200 mg/kg oral): -65%
- Established ulcer area, MEAN (gastric mucosal ulcers; day six, 200 mg/kg oral, controls 2.14 ± 0.43 (sucralfate, P < 0.1), 2.32 ± 0.61 (Compound III:Al, P < 0.05)): 0.82 ± 0.13 CM^2
- Perforation As Percent (gastric mucosal ulcers; pooled, 200 mg/kg, control 50, Compound III:Al P < 0.001 vs control and vs sucralfate): 0%
- Perforation Frequency (gastric mucosal ulcers; pooled, 200 mg/kg, days five and six, control 26/52): 0/49
- buffering action, in words ([4]; HCl titration): better dissolution-and-buffering action between pH 4.5 and 2.0 than either aluminum trihydroxide or sucralfate; also recorded: no buffering power whatsoever at this pH value

Compound: O=P(O)(O)OC[C@H]1O[C@H](OP(=O)(O)O)[C@@H](O)[C@@H](O)[C@@H]1O [Mannose-1,6-diphosphate]
- effect on inflammation in EAE, in words [5]: less effective than mannose-6-phosphate

Compound: O=P(O)(O)OC[C@H]1OC(O)(COP(=O)(O)O)[C@@H](O)[C@@H]1O (stereo partly drawn) [fructose-1,6-diphosphate]
- effect on inflammation in EAE, in words [5]: less effective than mannose-6-phosphate

Compound: O=P(O)(O)OC[C@H]1OC(O)[C@@H](O)[C@@H](O)[C@@H]1O (stereo partly drawn) [Mannose-6-phosphate]
- effect on inflammation in EAE, in words [5]: useful in treating inflammation

- effect on blood coagulation, in words (mouse blood coagulation): uncoagulatable after 60 minutes
Compound: Heparin

- IC50 (peritoneal neutrophils): 3000 nM
Compound: CCCN(CCC)S(=O)(=O)c1ccc(C(=O)O)cc1 [Probenecid, reference compound]
- expressions of cytotoxicity in neutrophils by microscopic examination (neutrophils): stringy, elongated deformation in the neutrophils
- inhibition at 0.1 µg/mL (peritoneal neutrophils): 5.5%
- inhibition at 1 µg/mL (peritoneal neutrophils; dose 1.0 μg/ml): 59.5%
- inhibition at 10 µg/mL (peritoneal neutrophils): 89.5%
